One series deals with Oval-Citar-3-MSLN cells. Description: Cytotoxic activity (CCK-8) in Oval-Citar-3 cells with high expression of MSLN. The conditions noted are these: for IC50: read-out: cytotoxicity IC50.
The subject of series [1] is Oval-Citar-3 human ovarian cancer bearing mouse model with high expression of MSLN. Description: Anti-tumor experiment of RC88-Py-MAA-Val-Cit-PAB-MMAE, dose groups and controls, in Oval-Citar-3-MSLN tumor-bearing nude mice (Example 6). The format is in vivo.
Procedure: Oval-Citar-3-MSLN cells (2×10^6) in normal growth state were subcutaneously inoculated in nude mice (Changzhou Cavans Laboratory Animal Co., Ltd., certificate number: 201611240, license number: SCXK (Su) 2011-0003), and the animals were randomized after the tumor volume grew to approximately 100-400 mm^3. […] 3 times in total (PTX was administered twice a week, 6 times in total), and the negative control group was administrated with the equal amount of physiological saline at the same time.
The mark [2] stands for this setting: OVal-CitAR3-MSLN, 72 hours, CCK-8, N = 3.
[3] abbreviates: 10 mg/kg twice a week, 6 times in total, after 21 days of administration.

Values joined by “and” are separate entries in the source; they are usually repeats but may differ in a detail not shown here. Equal values may be shown once. Read-outs that look alike come from different tables or passages of the source. Starred links: 1 amine or outer side, 2 acyl side, 3 side chain; linkers in the order of their positions; H or OH if unused. Non-standard residues stand in square brackets, D forms with d. Residues, ends and D or L forms follow the SMILES beside them. *: point of attachment. Dolaproine = CO[C@@H]([C@@H]1CCCN1)[C@@H](C)C(=O)O; Hexanoyl(6-maleimido) = O=C1C=CC(=O)N1CCCCCC(=O)*; Dil = CC[C@H](C)[C@H](NC)[C@@H](CC(=O)O)OC; PABC = O=C(OCc1ccc(N[*:1])cc1)[*:2]; Doe = c1ccc(C[C@H](N*)c2nccs2)cc1; X1 = C[C@@H](N*)[C@@H](O)c1ccccc1; Cit = NC(=O)NCCC[C@H](N)C(=O)O; NMeV = CN[C@H](C(=O)O)C(C)C A value given as a limit tells only on which side of the number the result lay.

Procedure for Oval-Citar-3-MSLN cells: Oval-Citar-3-MSLN cells in good growth state were added to a 96-well cell culture plates (5×10^4 cells/mL. 100 μL/well), and incubated overnight at 37° C. in a CO2 incubator. […] After dilution, they were added to 96 plates (100 μL/well), and a blank group (equal volume of medium without drug) and three control groups were set, and incubation was carried out in a CO2 constant temperature incubator at 37° C. for 72 hours. A medium (without FBS) that contained 10 μL of CCK-8 at a dose of 100 μL/well was added, incubated at 37° C. for 2 to 4 hours in a CO2 incubator, and the OD values at 450 nm were read with a microplate reader. The inhibition rate was calculated by the following formula: IR %=(ODblank−ODdrug)×100/ODblank.

For orientation: IC50 means the concentration needed to halve the response being measured. As to `CC[C@H](C)[C@@H]([C@@H](CC(=O)N1CCC[C@H]1[C@H](OC)[C@@H](C)C(=O)N[C@@H](Cc1ccccc1)c1nccs1)OC)N(C)C(=O)[C@@H](NC(=O)[C@@H](NC)C(C)C)C(C)C` [MMAD, monomethyl auristatin D] (H-[NMeV]V[Dil][Dolaproine]-Doe), in the series with Oval-Citar-3-MSLN cells (setting [2]), the “Inhibition rate, % (maximum inhibition rate)” value (“Inhibition rate, %” for short) is 98.1 ± 2.4%; the “cytotoxicity IC50” value was 0.1169 ± 0.0074 ng/mL; the half-inhibitory concentration (IC50) was 0.152 ± 0.01 nM.
For `CC[C@H](C)[C@@H]([C@@H](CC(=O)N1CCC[C@H]1[C@H](OC)[C@@H](C)C(=O)N[C@H](C)[C@@H](O)c1ccccc1)OC)N(C)C(=O)[C@@H](NC(=O)[C@@H](NC)C(C)C)C(C)C` [MMAE, monomethyl auristatin E] (H-[NMeV]V[Dil][Dolaproine]-X1), the “difference from the control (saline) group” value in series [1] (0.06 mg/kg, once a week, 3 times in total, P>0.05) was “no significant difference”. For the same molecule, in the series with Oval-Citar-3-MSLN cells (setting [2]), the “Inhibition rate, %” value is 96.9 ± 0.7%; the “cytotoxicity IC50” value was determined as 0.3199 ± 0.0284 ng/mL; the IC50 came out at 0.446 ± 0.0395 nM.
Consider `CC[C@H](C)[C@@H]([C@@H](CC(=O)N1CCC[C@H]1[C@H](OC)[C@@H](C)C(=O)N[C@H](C)[C@@H](O)c1ccccc1)OC)N(C)C(=O)[C@@H](NC(=O)[C@H](C(C)C)N(C)C(=O)OCc1ccc(NC(=O)[C@H](CCCNC(N)=O)NC(=O)[C@@H](NC(=O)CCCCCN2C(=O)C=CC2=O)C(C)C)cc1)C(C)C` [Mc-Val-Cit-PAB-MMAE] ({Hexanoyl(6-maleimido)}-V[Cit][PABC][NMeV]V[Dil][Dolaproine]-X1), for which, in the series with Oval-Citar-3-MSLN cells (setting [2]), the “Inhibition rate, %” value worked out at 94.5 ± 0.8% and the “cytotoxicity IC50” value is roughly 663.4 ng/mL.
For orientation: T/C means the result in the treated group divided by that in the control group, in per cent. As for `CC(=O)O[C@H]1C(=O)[C@@]2(C)[C@H]([C@H](OC(=O)c3ccccc3)[C@]3(O)C[C@H](OC(=O)[C@H](O)[C@@H](NC(=O)c4ccccc4)c4ccccc4)C(C)=C1C3(C)C)[C@]1(OC(C)=O)CO[C@@H]1C[C@@H]2O` [PTX, Paclitaxel], in series [1] (setting [3]), the T/C is listed as less than 40% and the “tumors completely eliminated (CR)” value is on record as “tumors were completely eliminated (CR) in two tumor-bearing mice”. In addition, in series [1] (10 mg/kg twice a week, 6 times in total, after 21 days, P<0.05), the “tumor volume and RTV versus the control (saline) group” value is recorded as “statistically different”. In the series on Oval-Citar-3-MSLN cells (Homo sapiens, 72 h), the IC50 was 0.00109 µg/mL and 1.27 nM. For the same molecule, the “Inhibition rate, %” value in the series with Oval-Citar-3-MSLN cells (setting [2]) turned out to be 92.8 ± 1.5%.

For the origin of these results see patent publication US12171840B2, “Anti-mesothelin antibody and antibody drug conjugate thereof” (Remegen, Ltd., priority 2018, dated 2024).
